Experimental data: PubChem BioAssay AID720495 (Broad Institute, 2013)
Inconclusive results are not listed. Activity calls are given as the source filed them. How the calls were made is not given here.

What follows are molecules tested against Protein AF-9 (Homo sapiens) (UniProt P42568) (assay: inhibitors of AF4-AF9 protein interaction, dose response, biochemical, cherry-picked samples, plate reader (AID 720495)). Conditions: biochemical protein-protein interaction assay.
Sequence of Protein AF-9 (Homo sapiens) (P42568 whole entry, looked up): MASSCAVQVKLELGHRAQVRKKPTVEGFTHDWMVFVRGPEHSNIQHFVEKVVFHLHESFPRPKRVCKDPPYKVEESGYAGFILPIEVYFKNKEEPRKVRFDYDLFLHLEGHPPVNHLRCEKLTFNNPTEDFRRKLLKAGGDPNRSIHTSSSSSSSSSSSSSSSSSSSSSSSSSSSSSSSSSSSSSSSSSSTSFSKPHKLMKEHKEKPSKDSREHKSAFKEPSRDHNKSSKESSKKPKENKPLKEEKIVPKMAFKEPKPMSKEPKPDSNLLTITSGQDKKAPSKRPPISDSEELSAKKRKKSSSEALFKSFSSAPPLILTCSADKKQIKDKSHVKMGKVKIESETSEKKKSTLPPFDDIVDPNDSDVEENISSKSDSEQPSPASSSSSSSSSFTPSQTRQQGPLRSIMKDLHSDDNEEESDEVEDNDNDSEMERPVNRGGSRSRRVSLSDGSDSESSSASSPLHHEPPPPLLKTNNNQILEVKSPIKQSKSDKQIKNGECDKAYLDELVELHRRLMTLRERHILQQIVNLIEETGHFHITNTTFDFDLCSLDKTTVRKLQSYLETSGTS

Compound | AC50 [µM]
CC(C)(C)C1=CC(=Nc2ccccc2N)C=C(C(C)(C)C)C1=O | 0.761
CC(=O)c1cccc2c(O)c(C3=Nc4ccccc4C3=O)[nH]c12 | 3.11
CCc1cccc(NC(=O)CCCCCC2NC(=O)NC2C)c1 (stereo not given) | < 0.08
Cc1c(C(=O)NCC(c2ccco2)N(C)C)oc2c(Cl)cccc12 (stereo not given) | 7.77
COc1ccc(NCc2ccc(OC)c(Cn3ccnc3)c2)c(OC)c1 | 11.2
NC(=NCCCCCCN=C(N)/N=C(\N)Nc1ccc(Cl)cc1)/N=C(\N)Nc1ccc(Cl)cc1 | 5.27
CNC[C@H](Cc1ccccc1)NC[C@@H](Cc1cccc2ccccc12)NCCc1ccc(C)cc1 | 10.1
O=C(COc1cc(F)ccc1[N+](=O)[O-])Nc1ccc(N2CCCCC2)cc1 | 9.04
CC(C)(C)OC(=O)N1CCCN(C(c2ccnc3ccccc23)c2nnnn2-c2ccc3c(c2)OCCO3)CC1 (stereo not given) | 0.312
CS(=O)(=O)N1CCCCN2[C@H](C1)[C@H](c1ccc(C#Cc3ccccn3)cc1)[C@@H]2CO | 7.82
CN1CCN(C(c2ccc(C(F)(F)F)cc2)c2ccc3cccnc3c2O)CC1 (stereo not given) | 0.857
CCOc1ccc(NCc2cccn2-c2nnc(N3CCC(C(=O)NCCCN4CCCCC4C)CC3)s2)cc1 (stereo not given) | 4.96
COc1ccccc1N(C(C)=O)C1=C(Cl)C(=O)c2ccccc2C1=O | 7.96
CCN(CC)c1ccc(C(=C2C=CC(=[N+](CC)CC)C=C2)c2ccccc2)cc1 | 0.685
CCN1/C(=C/C(C)=C/c2sc3ccccc3[n+]2CC)Sc2ccccc21 | 5.6
Cc1cc(N=Nc2ccc3ccccc3c2)ccc1O | 9.43

Compound | AC50 [µM]
Oc1c(C(Nc2cccc(C(F)(F)F)c2)c2ccncc2)ccc2cccnc12 (stereo not given) | 0.515
C[C@H]1CCCCO[C@H](CN(C)Cc2ccc(Cl)c(Cl)c2)[C@@H](C)CN([C@@H](C)CO)C(=O)c2cc(N(C)C)ccc2O1 | 10.6
CC(=NNC(=S)N1CCN(C2CCCCCC2)CC1)c1ccccn1 | 0.687
C[n+]1c(-c2ccccc2)c2cc(N)ccc2c2ccc(N)cc21 | 9.5
CN(C)c1ccc(/C=C/c2cc[n+](C)c3ccccc23)cc1 | 1.05
CN[C@H]1C[C@H]2c3[nH]c4ccc(-c5cccc(C)c5)cc4c3CCN2C[C@H]1[C@H](C)O | 6.97
CCCCCc1cc(=O)oc2c(C(CCN3CCCC3)c3ccc(N(C)C)cc3)c(OC)cc(OC)c12 (stereo not given) | 2.31
CCCC(=O)NC(c1ccc(N(C)C)cc1)c1ccc2cccnc2c1O (stereo not given) | 1.04
CCN(CC)CCOc1ccc2c(c1)C(=NNC(=O)c1ccccn1)c1cc(OCCN(CC)CC)ccc1-2 | 3.66
C#CCOCCOCCOCCNc1nc(N2CCN(C(=O)[C@H](CCCCN)n3cc([C@@H](N)CC(N)=O)nn3)CC2)nc(N2CCN(C(=O)[C@H](CCCCN)n3cc([C@@H](N)CC(N)=O)nn3)CC2)n1 | 6.87
CN(C)CC/C=C1/c2ccc(F)cc2Sc2ccc(Cl)cc21 | 5.01
COc1cccc2sc(N(CCCN(C)C)C(=O)c3ccc(S(=O)(=O)N4CCCc5ccccc54)cc3)nc12 | 4.68
O=C(/C(=N/N=C/c1ccc(O)c(O)c1)c1ccccc1)c1ccccc1 | 1.62
CN1CCN(C(c2ccc(Cl)cc2)c2cc(Cl)c3cccnc3c2O)CC1 (stereo not given) | 0.984
CC[n+]1c(/C=C/C=C/c2ccc(N(C)C)cc2)sc2ccccc21 | 0.522
COc1ccc(C(CCNCc2ccc(N(C)C)cc2)c2ccccc2OC)cc1 (stereo not given) | 6.09

Same assay, conditions: biochemical protein-protein interaction assay, at 10 µM (top of the series)

Compound | activity change, negative = inhibition
CCOc1cc(N2CCOCC2)c(OCC)cc1NC(=O)c1ccc2ccccc2n1 | inactive
CC(=Nc1ccc(C)cc1C)c1sc2ccccc2c1O | inactive
COc1ccc(CN2CC3(C2)CN(Cc2ccc4c(c2)OCO4)[C@H](CO)c2[nH]c4cc(OC)ccc4c23)cc1 | inactive
COc1ccccc1N1CCN(/N=C/c2cccc(Cl)c2)CC1 | inactive
COc1ccc(OC)c(NC2=C(Cl)C(=O)N(Cc3ccccc3)C2=O)c1 | inactive
CCN(CC)c1ccc(N=Cc2cc(Br)ccc2O)cc1 | inactive
COc1cccc(-c2sc3ccccc3c2-c2ccc(OCCN(C)C)cc2)c1 | inactive
CN(C)CCNc1nc2sc3c(c2c(=O)n1CCc1ccccc1)CCCCC3 | inactive
CCOC(=O)/C(C#N)=C/c1c(N2CCN(Cc3ccc4c(c3)OCO4)CC2)nc2c(C)cccn2c1=O | inactive
Cn1ccc2c(N3CCCCCC3)cc3c(c21)C1CCC3C1 (stereo not given) | inactive
COCCCNCC(O)COc1cccc2[nH]c(C)cc12 (stereo not given) | inactive
CC(C)n1ncc2c(C(=O)Nc3ccc(S(N)(=O)=O)cc3)cc(C3CC3)nc21 | inactive
O=C(Nc1cccc(CNCCc2c[nH]c3ccccc23)c1)c1ccccc1Cl | inactive
COc1ccc(CN2CCC(N(CCc3ccccc3)Cc3ccccc3)CC2)c(OC)c1 | inactive
c1ccc2c(c1)nc(Nc1ccc(N3CCCCC3)cc1)c1nncn12 | inactive
CN1CCN(c2ccc(S(=O)(=O)N3CCCCC3)cc2NC(=O)/C=C/c2ccc(Cl)c([N+](=O)[O-])c2)CC1 | inactive
CCc1ccc(-c2nc(CSCC(=O)N3CCN(c4ncccn4)CC3)c(C)o2)cc1 | inactive

Compound | activity change, negative = inhibition
Cc1ccc2nc(-c3ccccn3)c(NC3CCCC3)n2c1 | inactive
CN(C)C(CNC(C(=O)Nc1ccc([N+](=O)[O-])cc1Br)c1ccccc1)c1ccccc1 (stereo not given) | inactive
COc1ccccc1Nc1c2c(nc3ccc(N)cc13)CCCC2 | inactive
CN=c1scc(-c2cccs2)n1/N=C/c1ccccc1O | inactive
CCOc1cc(CNc2cccc3[nH]c(C)nc23)ccc1OC | inactive
CCN(CC)CCSc1nc2ccccc2c(=S)n1-c1ccccc1 | inactive
CC(C)N1CCN(c2ccc(OC[C@H]3CO[C@](Cn4cncn4)(c4ccc(Cl)cc4Cl)O3)cc2)CC1 | inactive
Oc1ccccc1C=NCCN1CCN(CCN=Cc2ccccc2O)C1c1ccccc1O (stereo not given) | inactive
CCn1c(C)c(C(C)=O)c(N2CCN(c3ccc(OC)cc3)CC2)nc1=S | inactive
O=C(O)CCNc1ccc(NCCC(=O)O)c2c1C(=O)c1ccccc1C2=O | inactive
CCOc1ccc(Nc2ccc([N+](=O)[O-])c3nonc23)cc1 | inactive
O=C1CN=C(c2ccc(Br)cc2)c2c(sc3c2CCCC3)N1CCN1CCCCC1 | inactive
C#CCOCCOCCOCCNc1nc(N2CCN(C(=O)[C@H](CCCCN)n3cc([C@@H](N)[C@H](C)CC)nn3)CC2)nc(N2CCN(C(=O)[C@H](CCC(=O)O)n3cc([C@@H](N)CCCCN)nn3)CC2)n1 | inactive
C#CCOCCOCCOCCNc1nc(N2CCN(C(=O)C([C@@H](C)O)n3cc([C@@H](N)CCCCN)nn3)CC2)nc(N2CCN(C(=O)C([C@@H](C)O)n3cc([C@@H](N)CCCCN)nn3)CC2)n1 (stereo not given in full) | inactive
CCN(CC)c1ccc(N=Cc2ccc([N+](=O)[O-])o2)cc1 | inactive
CC(=O)c1ccc(OCC(=O)Nc2ccc(N3CCCCC3)cc2)cc1 | inactive
